The target in the test is T1, Recombinant Human ENPP-2/Autotaxin (Homo sapiens, UniProt Q13822).
T1 construct: purchased R&D systems 5255-EN
Nature of the test: LysoPLD activity measurement (autotaxin enzyme inhibition, choline release, TOOS reagent). It is filed as biochemical. The following applies: LysoPLD inhibitory activity; substrate 14:0 LysoPC; absorbance at 555 nm. The method in brief: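 Enzyme and compound were preincubated for 30 min before adding 14:0 LysoPC substrate, diluted to 300 μM, for 90 minutes at 37° C. The choline product was quantified colorimetrically with TOOS reagent. Wells without compound held 1% DMSO.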

As to `O=C(O)c1cccc(C2(n3c(=O)n(-c4ccc(N5CC6(COC6)C5)cc4)c4cc(Cl)ccc43)CC2)c1` [Example 149, 3-(1-(3-(4-(2-oxa-6-azaspiro[3.3]heptane-6-yl)phenyl)-5-chloro-2-oxo-2,3-dihydro-1H-benzo[d]imidazol-1-yl)cyclopropyl)benzoic acid], the IC50 (in general, the concentration that gives 50% inhibition) was less than 10 nM.
For the molecule `O=C(O)c1cccc(C2(n3c(=O)n(-c4ccc(C5=CCOC5)cc4)c4cc(Cl)ccc43)CC2)c1` [Example 124, 3-(1-(5-chloro-3-(4-(2,5-dihydrofuran-3-yl)phenyl)-2-oxo-2,3-dihydro-1H-benzo[d]imidazol-1-yl)cyclopropyl)benzoic acid], the IC50 was less than 10 nM.
For `O=C(O)c1cccc(Cn2c(=O)n(-c3ccc(C4=CCCCC4)cc3)c3cc(Cl)ccc32)c1` [Example 109, 3-((5-chloro-2-oxo-3-(2′,3′,4′,5′-tetrahydro-[1,1′-biphenyl]-4-yl)-2,3-dihydro-1H-benzo[d]imidazol-1-yl)methyl)benzoic acid], the IC50 fell in the range of 100 to 1000 nM.
`CC1(C)OCc2cc(-n3c(=O)n(C4(c5cccc(C(=O)O)c5F)CC4)c4ccc(Cl)cc43)ccc21` [Example 253, 3-(1-(5-chloro-3-(1,1-dimethyl-1,3-dihydroisobenzofuran-5-yl)-2-oxo-2,3-dihydro-1H-benzo[d]imidazol-1-yl)cyclopropyl)-2-fluorobenzoic acid]: the IC50 is 10 to 100 nM.
With `CC(C)Oc1ccc(-n2c(=O)n(Cc3cccc(C(=O)O)c3F)c3ccc(Cl)cc32)cc1` [Example 40, 3-((5-chloro-3-(4-isopropoxyphenyl)-2-oxo-2,3-dihydro-1H-benzo[d]imidazol-1-yl)methyl)-2-fluorobenzoic acid] the figure was 10 to 100 nM.
Turning to `O=C(O)c1cccc(Cn2c(=O)n(-c3ccc(O)cc3)c3cc(Cl)ccc32)c1` [Example 13, 3-((5-chloro-3-(4-hydroxyphenyl)-2-oxo-2,3-dihydro-1H-benzo[d]imidazol-1-yl)methyl)benzoic acid], the IC50 lay within 100 to 1000 nM.
With `CN(C)c1ccc(-n2c(=O)n(Cc3cccc(C(=O)O)c3)c3ccc(Cl)cc32)nc1` [Example 164, 3-((5-chloro-3-(5-(dimethylamino)pyridin-2-yl)-2-oxo-2,3-dihydro-1H-benzo[d]imidazol-1-yl)methyl)benzoic acid] the figure was 100 to 1000 nM; with `O=C(O)c1cc(Cn2c(=O)n(-c3ccc(N4CCOCC4)cc3)c3c(F)c(Cl)ccc32)on1` [Example 198, 5-((5-chloro-4-fluoro-3-(4-morpholinophenyl)-2-oxo-2,3-dihydro-1H-benzo[d]imidazol-1-yl)methyl)isoxazole-3-carboxylic acid], 100 to 1000 nM; with `O=C(O)c1cccc(Cn2c(=O)n(-c3ccc(N4CC(O)C4)nc3)c3cc(Cl)ccc32)c1` [Example 77, 3-((5-chloro-3-(6-(3-hydroxyazetidin-1-yl)pyridin-3-yl)-2-oxo-2,3-dihydro-1H-benzo[d]imidazol-1-yl)methyl)benzoic acid], 100 to 1000 nM.
In the case of `O=C(O)c1cccc(C2(n3c(=O)n(-c4ccc(C5CCOCC5)cc4)c4cc(Cl)cnc43)CC2)c1` [Example 220, 3-(1-(6-chloro-2-oxo-1-(4-(tetrahydro-2H-pyran-4-yl)phenyl)-1,2-dihydro-3H-imidazo[4,5-b]pyridin-3-yl)cyclopropyl)benzoic acid], the half-inhibitory concentration (IC50) is less than 10 nM.
Next, `O=C(O)c1cc(F)cc(C2(n3c(=O)n(-c4ccc(N5CC6CCC(C5)O6)cc4)c4cc(Cl)ccc43)CC2)c1` [Example 192, 3-(1-(3-(4-(8-oxa-3-azabicyclo[3.2.1]octan-3-yl)phenyl)-5-chloro-2-oxo-2,3-dihydro-1H-benzo[d]imidazol-1-yl)cyclopropyl)-5-fluorobenzoic acid]: less than 10 nM; `CC(C)(C)OC(=O)N1CCC2(CC1)CN(c1ccc(-n3c(=O)n(C4(c5cc(F)cc(C(=O)O)c5)CC4)c4ccc(Cl)cc43)cc1)C2` [Example 195, 3-(1-(3-(4-(7-(tert-butoxycarbonyl)-2,7-diazaspiro[3.5]nonan-2-yl)phenyl)-5-chloro-2-oxo-2,3-dihydro-1H-benzo[d]imidazol-1-yl)cyclopropyl)-5-fluorobenzoic acid]: 10 to 100 nM; `CNC(=O)c1ccc(-n2c(=O)n(Cc3cccc(C(=O)O)c3)c3ccc(Cl)cc32)cc1` [Example 22, 3-((5-chloro-3-(4-(methylcarbamoyl)phenyl)-2-oxo-2,3-dihydro-1H-benzo[d]imidazol-1-yl)methyl)benzoic acid]: 10 to 100 nM.
As for `O=C(O)c1cccc(C2(n3c(=O)n(-c4ccc(S(=O)(=O)N5CCOCC5)cc4)c4cc(Cl)ccc43)CC2)c1` [Example 212, 3-(1-(5-chloro-3-(4-(morpholinosulfonyl)phenyl)-2-oxo-2,3-dihydro-1H-benzo[d]imidazol-1-yl)cyclopropyl)benzoic acid], the 50% inhibitory concentration (IC50) was less than 10 nM.
For `O=C(O)c1cccc(C2(n3c(=O)n(-c4ccc(C(=O)N5CC6(CCOCC6)C5)cc4)c4cc(Cl)cnc43)CC2)c1` [Example 225, 3-(1-(1-(4-(7-oxa-2-azaspiro[3.5]nonane-2-carbonyl)phenyl)-6-chloro-2-oxo-1,2-dihydro-3H-imidazo[4,5-b]pyridin-3-yl)cyclopropyl)benzoic acid], the IC50 is less than 10 nM.
With `O=C(O)c1cccc(C2(n3c(=O)n(-c4ccc(-c5nnc(C6CCCC6)o5)cc4)c4cc(Cl)ccc43)CC2)c1` [Example 266, 3-(1-(5-chloro-3-(4-(5-cyclopentyl-1,3,4-oxadiazol-2-yl)phenyl)-2-oxo-2,3-dihydro-1H-benzo[d]imidazol-1-yl)cyclopropyl)benzoic acid] the figure was less than 10 nM; with `O=C(O)c1cc(F)cc(C2(n3c(=O)n(-c4ccc(N5CCOCC5)cc4)c4cc(Cl)ccc43)CC2)c1` [Example 187, 3-(1-(5-chloro-3-(4-morpholinophenyl)-2-oxo-2,3-dihydro-1H-benzo[d]imidazol-1-yl)cyclopropyl)-5-fluorobenzoic acid], less than 10 nM.
Next, `CN(C)C(=O)c1ccc(-n2c(=O)n(Cc3cccc(C(=O)O)c3)c3ccc(Cl)cc32)cc1F` [Example 36, 3-((5-chloro-3-(4-(dimethylcarbamoyl)-3-fluorophenyl)-2-oxo-2,3-dihydro-1H-benzo[d]imidazol-1-yl)methyl)benzoic acid]: 10 to 100 nM.
With `O=C(O)c1cc(F)cc(C2(n3c(=O)n(-c4ccc(N5CCOCC5)cc4)c4cc(Cl)cnc43)CC2)c1` [Example 274, 3-(1-(6-chloro-1-(4-morpholinophenyl)-2-oxo-1,2-dihydro-3H-imidazo[4,5-b]pyridin-3-yl)cyclopropyl)-5-fluorobenzoic acid] the figure was less than 10 nM; with `O=C(O)c1cccc(Cn2c(=O)n(-c3ccc(C4=CCOC4)cc3)c3cc(Cl)ccc32)c1F` [Example 110, 3-((5-chloro-3-(4-(2,5-dihydrofuran-3-yl)phenyl)-2-oxo-2,3-dihydro-1H-benzo[d]imidazol-1-yl)methyl)-2-fluorobenzoic acid], 10 to 100 nM; with `C[C@@H]1CN(C(=O)Cc2ccc(-n3c(=O)n(C4(c5cccc(C(=O)O)c5)CC4)c4ccc(Cl)cc43)cc2)CCO1` [Example 175, (R)-3-(1-(5-chloro-3-(4-(2-(2-methylmorpholino)-2-oxoethyl)phenyl)-2-oxo-2,3-dihydro-1H-benzo[d]imidazol-1-yl)cyclopropyl)benzoic acid], less than 10 nM.
In the case of `C[C@H]1CN(C(=O)Cc2ccc(-n3c(=O)n(C4(c5cccc(C(=O)O)c5)CC4)c4ccc(Cl)cc43)cc2)CCO1` [Example 176, (S)-3-(1-(5-chloro-3-(4-(2-(2-methylmorpholino)-2-oxoethyl)phenyl)-2-oxo-2,3-dihydro-1H-benzo[d]imidazol-1-yl)cyclopropyl)benzoic acid], the half-inhibitory concentration (IC50) lay within 10 to 100 nM.
With `O=C(O)c1cccc(C2(n3c(=O)n(-c4ccc(C5CCOC5)cc4)c4cc(Cl)ccc43)CC2)c1` (centres unmarked) [Example 248, 3-(1-(5-chloro-2-oxo-3-(4-(tetrahydrofuran-3-yl)phenyl)-2,3-dihydro-1H-benzo[d]imidazol-1-yl)cyclopropyl)benzoic acid], the 50% inhibitory concentration (IC50) is less than 10 nM.
Next, `CCC(=O)N1CCN(c2ccc(-n3c(=O)n(Cc4cccc(C(=O)O)c4F)c4ccc(Cl)cc43)cc2)CC1` [Example 141, 3-((5-chloro-2-oxo-3-(4-(4-propionylpiperazin-1-yl)phenyl)-2,3-dihydro-1H-benzo[d]imidazol-1-yl)methyl)-2-fluorobenzoic acid]: 10 to 100 nM; `CN(C)C(=O)c1ccc(-n2c(=O)n(Cc3cccc(C(=O)O)c3F)c3ccc(Cl)cc32)cc1` [Example 38, 3-((5-chloro-3-(4-(dimethylcarbamoyl)phenyl)-2-oxo-2,3-dihydro-1H-benzo[d]imidazol-1-yl)methyl)-2-fluorobenzoic acid]: less than 10 nM; `O=C(O)c1cccc(Cn2c(=O)n(-c3ccc(C(=O)N4CCCCC4)cc3)c3cc(Cl)ccc32)c1F` [Example 57, 3-((5-chloro-2-oxo-3-(4-(piperidine-1-carbonyl)phenyl)-2,3-dihydro-1H-benzo[d]imidazol-1-yl)methyl)-2-fluorobenzoic acid]: less than 10 nM.
Next, `O=C(O)c1cccc(Cn2c(=O)n(-c3ccc(N4CCC(F)(F)C4)cc3)c3c(F)c(Cl)ccc32)c1` [Example 105, 3-((5-chloro-3-(4-(3,3-difluoropyrrolidin-1-yl)phenyl)-4-fluoro-2-oxo-2,3-dihydro-1H-benzo[d]imidazol-1-yl)methyl)benzoic acid]: 100 to 1000 nM.
Regarding `O=C(O)c1cccc(C2(n3c(=O)n(-c4ccc(C5CCOCC5)nc4)c4cc(Cl)ccc43)CC2)c1` [Example 261, 3-(1-(5-chloro-2-oxo-3-(6-(tetrahydro-2H-pyran-4-yl)pyridin-3-yl)-2,3-dihydro-1H-benzo[d]imidazol-1-yl)cyclopropyl)benzoic acid], the 50% inhibitory concentration (IC50) fell in the range of 10 to 100 nM.
As for `CN(C)C(=O)c1ccc(-n2c(=O)n(C3(c4cccc(C(=O)O)c4)CC3)c3ncc(Cl)cc32)cc1` [Example 223, 3-(1-(6-chloro-1-(4-(dimethylcarbamoyl)phenyl)-2-oxo-1,2-dihydro-3H-imidazo[4,5-b]pyridin-3-yl)cyclopropyl)benzoic acid], the IC50 is less than 10 nM.

The values are drawn from patent US20260265265A1, “NOVEL BENZIMIDAZOLONE DERIVATIVE COMPOUND AS AUTOTAXIN INHIBITOR” (LG CHEM, LTD., priority 2023, published 2026).
